Patent publication US5106851A, “Benzofused-N-containing heterocycle derivatives” (Istituto de Angeli S.p.A., priority 1989, dated 1992)
Like-named read-outs stand apart in the source and are kept apart here.

Legend:
[1] = tested on: muscarinic responses in guinea pig longitudinal ileum and guinea pig paced left atria; conditions: prototype compound, in words; cited from earlier work
[2] = target: T1, Muscarinic M2 (Rattus norvegicus, UniProt P10980); assay: Displacement of 3H-NMS from total heart homogenate (receptor binding studies in vitro)
T1 construct: displacement of ^3 H-NMS from total heart homogenate; from tissue; host or cells: total heart homogenate
T1 sequence (P10980 1-466): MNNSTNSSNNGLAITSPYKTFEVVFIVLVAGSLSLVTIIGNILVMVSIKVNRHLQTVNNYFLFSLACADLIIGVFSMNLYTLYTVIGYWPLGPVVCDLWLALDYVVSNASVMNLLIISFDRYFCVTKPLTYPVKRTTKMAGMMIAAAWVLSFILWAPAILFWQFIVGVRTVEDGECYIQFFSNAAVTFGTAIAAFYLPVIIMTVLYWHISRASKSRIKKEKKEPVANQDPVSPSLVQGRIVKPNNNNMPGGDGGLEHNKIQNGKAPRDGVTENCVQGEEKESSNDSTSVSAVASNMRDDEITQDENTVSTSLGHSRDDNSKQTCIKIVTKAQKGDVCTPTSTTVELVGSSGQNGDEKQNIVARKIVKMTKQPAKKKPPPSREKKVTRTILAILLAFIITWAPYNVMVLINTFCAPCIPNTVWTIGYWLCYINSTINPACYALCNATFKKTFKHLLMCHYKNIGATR
Method: (§1) Muscarinic M1 activity was determined by studying the displacement of ^3 H-pirenzepine from cerebral cortex homogenate according to the procedure reported below: The cerebral cortex donors were male CD-COOBBS rats, 220-250 g body weight. The homogenization process was carried out in a Potter-Evelhjem apparatus in the presence of Na^+ /Mg^++ HEPES buffer; pH 7.4 (100 mM NaCl, 10 mM MgCl2, 20 mM HEPES); by filtering the suspension through two layers of cheesecloth. Binding curves for the under study compounds were derived indirectly from competition experiments against 0.5 nM ^3 H-pirenzepine labelling the muscarinic receptors of the cerebral cortex. 1 ml of the homogenate was incubated for 45 min at 30° C. in the presence of a maker ligand and different concentration of the cold ligand, conditions under which equilibrium was reached as determined by appropriate association experiments. The incubation was terminated by centrifugation (12,000 rpm for 3 min) at room temperature using an Eppendorf microcentrifuge. The resultant pellet was washed twice with 1.5 ml saline to remove the free radioactivity and it was allowed to dry. The tips of the tubes containing the pellet were cut off and 200 μl of tissue solubilizer (Lumasolve, Lumac) were added and left to stand overnight. Radioactivity was then counted after addition of 4 ml of liquid scintillation mixture (Dimilume/Toluene 1+10 v:v, Packard).
(§2) Assays were carried out in triplicate or quadruplicate and the non-specificbinding was defined as the radioactivity bound or entrapped in the pellet when the incubation medium contained 1 μM atropine sulphate. Non-specific binding averaged less than 30%. KD values (dissociation constants) were obtained by non-linear regression analysis on the basis of one binding site model with TOPFIT-pharmacokinetic programme package (G. Heinzel "Pharmacokinetics During Drug Development: Data Analysis and Evaluation Techniques" Eds. G. Bolzer and J. M. Van Rossum; p. 207, G. Fisher, New York, 1982) after correction for the radioligand occupancy shift according to the equation: KD =IC50 /1+*C/*KD, where *C and *KD represent the concentration and the dissociation constants of the radioligand, used respectively. Muscarinic M2 activity was examined by studing the displacement of ^3 H-NMS from total heart homogenate according to a procedure identical to the one already described hereinbefore for the muscarinic M1 activity.

[3] = tested on: Muscarinic receptors in the heart; assay: In vivo inhibition of acetylcholine-induced bradycardia in the anaesthetized guinea pig; conditions: Cavia porcellus, iv, 5 min; i.v., 5 min before acetylcholine 50 μg/kg; dose in mol/kg; read-out: -log ED50, heart (converted)
Method: (§3) Guinea pigs of either sex (550-600 g) were anaesthetized with urethane (1.4 g/kg, i.p.). A jugular vein was cannulated for injection of drugs. Heparin (200 I.U./kg) was injected i.v. A cannula was placed in the trachea and the animals were artificially respirated with oxygenated room air by means of a positive pressure pump (Braun-Melsungen) with a rate of 80 strokes/min. A side arm of the tracheal cannula was connected to a water manometer of 10 cm height. The respiratory volume was adjusted so that the maximal intratracheal pressure during inspiration just attained to a pressure of 10 cm water.
A cannula was placed in the left common carotid artery and arterial blood pressure was measured via a Bell and Howell 4-327 I pressure transducer connected to an IFD recording device. Cardiac frequency was measured by a ratemeter, triggered by the arterial pulsewave.
The drugs to be tested were injected via the jugular vein and 5 min later bronchial resistence (%) and the decrease in cardiac frequence (beats/min) to acetylcholine (50 μg/kg i.v. and i.a.) was measured. Dose response curves were constructed by plotting the percent inhibition of bronchoconstriction and bradycardia against the logarithm of the dose (mol/kg) of the drugs to be tested.

[4] = target: T2, guinea pig left atria (Cavia porcellus, UniProt H0VRN8); assay: Functional studies in vitro, guinea pig paced left atria, bethanechol negative inotropic effect
T2 construct: guinea pig paced left atria; from tissue; host or cells: isolated guinea pig left atria
T2 sequence (H0VRN8 1-466): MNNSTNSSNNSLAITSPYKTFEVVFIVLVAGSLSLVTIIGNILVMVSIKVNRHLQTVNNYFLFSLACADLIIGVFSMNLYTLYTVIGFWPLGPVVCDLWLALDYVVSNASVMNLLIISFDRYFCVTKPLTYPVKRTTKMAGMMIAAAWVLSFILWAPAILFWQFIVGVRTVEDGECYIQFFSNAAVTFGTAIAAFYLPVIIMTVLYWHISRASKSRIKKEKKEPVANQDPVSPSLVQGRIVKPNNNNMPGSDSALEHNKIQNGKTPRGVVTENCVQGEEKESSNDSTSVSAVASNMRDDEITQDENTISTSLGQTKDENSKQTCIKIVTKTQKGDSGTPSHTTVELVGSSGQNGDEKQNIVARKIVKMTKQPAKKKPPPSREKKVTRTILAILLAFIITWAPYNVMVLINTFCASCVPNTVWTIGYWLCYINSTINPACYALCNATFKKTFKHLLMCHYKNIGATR
Text: (§4) Antimuscarinic activity and selectivity were examined in in vitro by receptor binding studies in two tissues endowed with M1 and M2 muscarinic receptors (cerebral cortex, heart), in functional studies in isolated guinea pig ileum and guinea pig paced left atria and in in vivo functional tests on bronchi and heart of the anaesthetized guinea pig.
The tissues were mounted in the Ewen's solution (millimolar: NaCl, 131.6; KCl, 5.6; CaCl2, 2.16; NaHCO3, 24.9; NaH2 PO4, 1.03; glucose, 11; and sucrose, 13) at 32° C. and stimulated through platinum electrodes by squarewave pulses (2 msec, 3 Hz, 100% above threshold voltage, delivered by a Grass S 48 stimulator). Inotropic activity was recorded isometrically (Statham transducer, Battaglia Rangoni ESO 300 recorder). Cumulative concentrations of bethanecol (1-30 μM) were used to induce a negative inotropic effect. Kb values were estimated as above described.

[5] = tested on: Muscarinic receptors in the bronchi; assay: In vivo inhibition of acetylcholine-induced bronchoconstriction in the anaesthetized guinea pig; conditions: Cavia porcellus, iv, 5 min; i.v., 5 min before acetylcholine 50 μg/kg; dose in mol/kg; read-out: -log ED50, bronchi (converted)
Method: as §3
Excepts for some modifications, the effects of the drugs on bronchial tone was measured according to the method described by Konzett and Rossler (1940). The bronchoconstriction-evoked volume of respiratory gas mixture (overflow) passing through the water manometer was measured by means of a FLEISCH tube pneumotachometer (Model 0000) connected to a SP 2040 D differential pressure transducer (HSE). Registration was performed on a IFD recording device. […]
The drugs to be tested were injected via the jugular vein and 5 min later bronchial resistence (%) and the decrease in cardiac frequence (beats/min) to acetylcholine (50 μg/kg i.v. and i.a.) was measured. […]

[6] = target: T3, Muscarinic M1 (Rattus norvegicus, UniProt P08482); assay: Displacement of 3H-pirenzepine from cerebral cortex homogenate (receptor binding studies in vitro)
T3 construct: displacement of ^3 H-pirenzepine from cerebral cortex homogenate; from tissue; host or cells: rat cerebral cortex homogenate
T3 sequence (P08482 1-460): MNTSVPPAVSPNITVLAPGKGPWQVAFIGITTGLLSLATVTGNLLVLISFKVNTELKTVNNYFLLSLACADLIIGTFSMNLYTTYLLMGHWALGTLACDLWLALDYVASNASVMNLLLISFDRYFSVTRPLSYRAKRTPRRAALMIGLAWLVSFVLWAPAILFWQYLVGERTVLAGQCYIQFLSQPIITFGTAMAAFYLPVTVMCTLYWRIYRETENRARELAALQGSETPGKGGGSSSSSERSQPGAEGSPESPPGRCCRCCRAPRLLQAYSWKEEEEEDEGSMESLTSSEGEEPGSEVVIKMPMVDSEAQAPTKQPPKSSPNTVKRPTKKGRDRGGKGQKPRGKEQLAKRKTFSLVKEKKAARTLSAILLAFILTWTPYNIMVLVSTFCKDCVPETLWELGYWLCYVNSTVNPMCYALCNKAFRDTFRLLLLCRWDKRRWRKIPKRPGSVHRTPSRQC
Method: as §1, §2

[7] = target: T4, guinea pig ileum (Cavia porcellus, UniProt H0W1Z3); assay: Functional studies in vitro, isolated guinea pig ileum contracted with bethanechol
T4 construct: A 2 cm section of terminal ileum was prepared; from tissue; host or cells: isolated guinea pig terminal ileum
Method: as §4
Responses were recorded isotonically. Kb values were calculated according to Arunlakshana and Shild (British Journal of Pharmacology 14, 48-54, 1959).

[8] = tested on: receptors with low affinity to Pirenzepine (M2 type); conditions: mainly in effector organs; cited from earlier work
[9] = total heart homogenate, 3H-NMS, read-out: KD, M2 (heart)

T4 sequence (H0W1Z3 1-590): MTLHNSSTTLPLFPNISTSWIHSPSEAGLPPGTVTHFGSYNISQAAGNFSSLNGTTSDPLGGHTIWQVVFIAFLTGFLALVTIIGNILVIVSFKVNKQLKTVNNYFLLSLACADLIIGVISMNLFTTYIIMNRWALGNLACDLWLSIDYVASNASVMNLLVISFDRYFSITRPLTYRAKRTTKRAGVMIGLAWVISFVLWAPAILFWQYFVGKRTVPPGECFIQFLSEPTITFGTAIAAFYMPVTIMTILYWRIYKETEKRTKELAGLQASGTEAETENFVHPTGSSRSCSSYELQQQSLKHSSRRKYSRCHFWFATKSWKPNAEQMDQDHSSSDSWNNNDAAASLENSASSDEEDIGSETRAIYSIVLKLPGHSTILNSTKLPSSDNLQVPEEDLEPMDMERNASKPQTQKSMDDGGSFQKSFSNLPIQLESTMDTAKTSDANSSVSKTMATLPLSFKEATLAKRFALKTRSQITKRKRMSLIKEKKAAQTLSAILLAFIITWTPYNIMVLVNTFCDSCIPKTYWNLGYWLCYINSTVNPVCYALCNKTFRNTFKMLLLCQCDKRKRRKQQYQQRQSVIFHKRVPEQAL

| Structure (SMILES) | Kb [4] [nM] | Kb [7] [nM] | Kd [6] [nM] | Kd [2, 9] [nM] | also measured |
| --- | --- | --- | --- | --- | --- |
| CCN(CC)CC1CCCCN1CC(=O)N1c2ccccc2C(=O)Nc2cccnc21 (centres unmarked) [AF-DX-116, 11-2-{[2-(diethylamino)methyl-1-piperidinyl]acetyl}-5,11-dihydro-6H-pyrido (2,3-b)(1,4)benzodiazepin-6-one] |  |  |  |  | tissue selectivity among muscarinic antagonists [1]: cardioselective |
| C[N+]1(C)CCC(OC(=O)C(c2ccccc2)c2ccccc2)CC1 [Compound 4-DAMP, 4-diphenylacetoxy-N-methylpiperidine methobromide] |  |  |  |  | tissue selectivity among muscarinic antagonists [1]: smooth muscle selective |
| CN1[C@@H]2CC[C@H]1C[C@@H](OC(=O)N1Cc3ccccc3NC1=O)C2 [Compound 16, 1,4-dihydro-2(H)-2-oxo-3-quinazoline carboxylic acid-(endo-8-methyl-8-azabicyclo[3.2.1]oct-3-yl), ester] | 122 | 1.5 |  |  | Kd [2]: 133 nM; ED50 [3]: 1 µmol/kg; ED50 [5]: 0.00794 µmol/kg; Kd ([6]; cerebral cortex homogenate, 0.5 nM 3H-pirenzepine, 45 min at 30° C., pH 7.4, read-out: KD, M1 (cortex)): 1 nM |
| CN1[C@@H]2CC[C@H]1C[C@@H](NC(=O)N1Cc3ccccc3NC1=O)C2 [Compound 23, N-(endo-8-methyl-8-azabicyclo[3.2.1]oct-3-yl)-1,4-dihydro-2(H)-2-oxo-3-quinazoline carboxamide] |  |  | 1 |  | Kd [2]: 60 nM; Kb ([4]; functional studies, guinea pig paced left atria, bethanechol 1-30 μM, 32° C., read-out: Kb, heart): 22 nM; Kb ([7]; functional studies, guinea pig ileum, bethanechol 0.3-10 μM, read-out: Kb, ileum): 0.6 nM |
| CN1[C@@H]2CC[C@H]1C[C@@H](OC(=O)N1Cc3ccc(Cl)cc3NC1=O)C2 [Compound 25, 7-chloro-1,4-dihydro-2(H)-2-oxo-3-quinazoline carboxylic acid-(endo-8-methyl-8-azabicyclo[3.2.1]oct-3-yl), ester] | 2200 | 16 | 7 | 1470 |  |
| CN1[C@@H]2CC[C@H]1C[C@@H](OC(=O)N1Cc3cc(F)ccc3NC1=O)C2 [Compound 26, 1,4-dihydro-6-fluoro-2(H)-2-oxo-3-quinazoline carboxylic acid-(endo-8-methyl-8-azabicyclo[3.2.1]oct-3-yl), ester] | 250 | 4.5 | 3 | 400 |  |
| CN1C2CCC1CC(OC(=O)N1C(=O)Nc3ccccc3C1O)C2 (stereo not drawn) [Compound 49, 1,4-dihydro-4-hydroxy-2(H)-2-oxo-3-quinazolinecarboxylic acid-(endo-8-methyl-8-azabicyclo[3.2.1]oct-3-yl), ester] | 75 | 1 | 2 | 250 |  |
| CN1CCN(CC(=O)N2c3ccccc3C(=O)Nc3cccnc32)CC1 [Pirenzepine] |  |  |  |  | affinity at M2 type receptors [8]: low affinity |
| CC(C[N+](C)(C)C)OC(N)=O (centres unmarked) [bethanechol, reference compound] |  |  |  |  | EC50 ([7]; guinea pig terminal ileum, Tyrode solution, cumulative conc. 0.3-10 μM, read-out: EC50 of bethanechol (contraction)): 1500 nM |
